In US20230356105A1, “TETRAAZADODECANE BASED CHELATING AGENTS FOR SEPARATION OF RARE EARTH ELEMENTS AND METHOD THEREFOR” (Ustav Organicke Chemie a Biochemie AV CR V.V.I., priority 2020, published 2023):
“And” between values parts separate entries of the source, which are not always exact repeats. Identical values can stand only once. Like-named read-outs stand apart in the source and are kept apart here.

Tests used:
Assay type in all cases: physicochemical
[1] = Separation of Tb/Lu mixture by precipitation using L4 (Example 16); conditions: for Precipitate concentration [mM] Lu / Precipitate concentration [mM] Tb: dissolved to 150 μL
Method: The experiment was conducted according to Example 24, with 3 identical reaction mixtures containing Tb, Lu, and compound L4. The experimental procedure was identical to that of Example 24 with the difference being that the dissolution of the precipitate in 100 μL, 1 M HCl was achieved within several minutes. The resulting absolute concentrations of both metals in the supernatants and precipitates, as well as calculated values of the separation factor […] according to formula from Example 11), are summarized in Table 10. […] The average separation factor value was 27.

[2] = Use of additives to improve separation of Nd/Dy mixture by precipitation with L5 (Example 18); conditions: 11 mM L5
Method: Stock solutions were pipetted into plastic 1×1 cm cuvettes to prepare reaction mixtures with concentrations as follows: • 1. […] 5 mM NdCl3 • 3. 5 mM DyCl3 • 4. 500 mM MOPS pH=7 • 5. the additive of interest, in a variable concentration; if possible, stock solutions were prepared from Na^+ salt forms of the compound; if not, the stock solutions were titrated by NaOH/HCl to pH=7 prior to addition (see Table 12 for additives and concentrations)
These aqueous reaction mixtures, each prepared to a total volume of 2.0 mL with the addition of water as necessary, were mixed by the use of a PTFE-coated stir bar on a magnetic stirrer. The cuvettes were sealed with transparent tape to prevent evaporation overnight. The reaction mixtures were stirred for 18 hours, at which point 500 μL aliquots of each reaction mixture were transferred into plastic 2 mL Eppendorf tubes and centrifuged. The supernatants were carefully pipetted out and transferred to a new set of tubes. The precipitate was dissolved by addition of 500 μL 1M HCl. The absolute concentration of Nd and Dy in each supernatant and precipitate was determined by ICP-OES.

[3] = Removal of additive from remaining solution after precipitation by ultrafiltration (Example 25); conditions: initial [additive] 76 mM

O=C(O)CN1CCN(CC(=O)O)CCN(Cc2ccc3ccccc3c2)CCN(CC(=O)O)CC1 [L4, 2,2′,2″-(10-(naphthalene-2-ylmethyl)-1,4,7,10-tetraazacyklododekane-1,4,7-triyl)triacetic acid]
Supernatant concentration [mM] Lu [1]: 4.26 mM and 4.07 mM and 4.18 mM
Supernatant concentration [mM] Tb [1]: 1.08 mM and 0.93 mM and 1.19 mM
Precipitate concentration [mM] Lu [1]: 0.51 mM and 0.61 mM and 0.47 mM
Precipitate concentration [mM] Tb [1]: 3.74 mM and 3.73 mM and 3.28 mM
Precipitate concentration [mM] Lu ([1]; mean): 0.53 mM
Precipitate concentration [mM] Tb ([1]; mean): 3.59 mM
Supernatant concentration [mM] Lu ([1]; mean): 4.17 mM
Supernatant concentration [mM] Tb ([1]; mean): 1.07 mM

O=C(O)c1ccccc1 [benzoic acid]
Precipitate concentration [mM] Dy ([2]; additive 20 mM): 3.83 mM
Precipitate concentration [mM] Nd ([2]; additive 20 mM): 4.94 mM
Supernatant concentration [mM] Dy ([2]; additive 20 mM): 1.09 mM
Supernatant concentration [mM] Nd ([2]; additive 20 mM): 0.13 mM
Precipitate concentration [mM] Dy ([2]; additive 50 mM): 1.81 mM
Precipitate concentration [mM] Nd ([2]; additive 50 mM): 4.66 mM
Supernatant concentration [mM] Dy ([2]; additive 50 mM): 2.69 mM
Supernatant concentration [mM] Nd ([2]; additive 50 mM): 0.10 mM
Precipitate concentration [mM] Dy ([2]; additive 100 mM): 0.97 mM
Precipitate concentration [mM] Nd ([2]; additive 100 mM): 4.60 mM
Supernatant concentration [mM] Dy ([2]; additive 100 mM): 4.03 mM
Supernatant concentration [mM] Nd ([2]; additive 100 mM): 0.49 mM
Precipitate concentration [mM] Dy ([2]; additive 150 mM): 0.68 mM
Precipitate concentration [mM] Nd ([2]; additive 150 mM): 3.96 mM
Supernatant concentration [mM] Dy ([2]; additive 150 mM): 4.34 mM
Supernatant concentration [mM] Nd ([2]; additive 150 mM): 1.03 mM
Precipitate concentration [mM] Dy ([2]; additive 200 mM): 0.53 mM
Precipitate concentration [mM] Nd ([2]; additive 200 mM): 1.65 mM
Supernatant concentration [mM] Dy ([2]; additive 200 mM): 4.20 mM
Supernatant concentration [mM] Nd ([2]; additive 200 mM): 2.89 mM
Precipitate concentration [mM] Dy ([2]; additive 250 mM): 0 mM
Precipitate concentration [mM] Nd ([2]; additive 250 mM): 0 mM
Supernatant concentration [mM] Dy ([2]; additive 250 mM): 5 mM
Supernatant concentration [mM] Nd ([2]; additive 250 mM): 5 mM
% of initial [additive] in filtrate [3]: 43%
